Assay results reported in US20240246942A1, “KINASE INHIBITORS FOR THE TREATMENT OF NEURODEGENERATIVE DISEASES” (priority 2020, published 2024).

Assays:
CYP1A2 = target: T1, CYP1A2 (Homo sapiens, UniProt P05177); test: P450 cocktail inhibition assay, CYP1A2; format: in vitro ADME; details: at 10 μM
T1 sequence (P05177 1-516): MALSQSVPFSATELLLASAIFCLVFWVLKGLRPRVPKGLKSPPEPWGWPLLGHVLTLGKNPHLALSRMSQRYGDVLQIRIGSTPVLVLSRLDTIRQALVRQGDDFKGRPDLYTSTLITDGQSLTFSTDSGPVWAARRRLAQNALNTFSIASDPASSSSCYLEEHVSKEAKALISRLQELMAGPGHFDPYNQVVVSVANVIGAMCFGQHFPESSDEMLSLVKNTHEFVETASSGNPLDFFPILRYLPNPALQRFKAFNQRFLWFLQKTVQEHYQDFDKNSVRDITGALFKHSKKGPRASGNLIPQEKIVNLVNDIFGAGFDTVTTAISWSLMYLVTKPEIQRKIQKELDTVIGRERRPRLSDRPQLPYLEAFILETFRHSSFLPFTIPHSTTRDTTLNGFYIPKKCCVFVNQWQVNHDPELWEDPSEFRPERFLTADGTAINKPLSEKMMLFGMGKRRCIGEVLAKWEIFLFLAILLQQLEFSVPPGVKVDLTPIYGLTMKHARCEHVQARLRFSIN
Method: (§1) P450s inhibition for four major isoforms are evaluated using a cocktail inhibition assay where the metabolism of specific marker substrate (CYP1A2 phenaceten […] to acetaminophen); CYP2C9, tolbutamide hydroxylation to hydrocytolbutamide; CYP2D6, bufuralol hydroxylation to […]; and CYP3A4, midazolam hydroxylation to 1′-Hydroxymidazolam) in the presence or absence of 10 TM probe compound is evaluated. The concentration of each marker substrate is approximately its Km. […] Specific inhibitors for each isoform are included in each run to validate the system.

JNK3α1 = JNK3α1 (Homo sapiens, UniProt P53779); format: biochemical; details: for IC50: mean of ≥2 experiments, read-out: Biochemical inhibition IC50 JNK3
Sequence of JNK3α1 (P53779 1-422 isoform P53779-2): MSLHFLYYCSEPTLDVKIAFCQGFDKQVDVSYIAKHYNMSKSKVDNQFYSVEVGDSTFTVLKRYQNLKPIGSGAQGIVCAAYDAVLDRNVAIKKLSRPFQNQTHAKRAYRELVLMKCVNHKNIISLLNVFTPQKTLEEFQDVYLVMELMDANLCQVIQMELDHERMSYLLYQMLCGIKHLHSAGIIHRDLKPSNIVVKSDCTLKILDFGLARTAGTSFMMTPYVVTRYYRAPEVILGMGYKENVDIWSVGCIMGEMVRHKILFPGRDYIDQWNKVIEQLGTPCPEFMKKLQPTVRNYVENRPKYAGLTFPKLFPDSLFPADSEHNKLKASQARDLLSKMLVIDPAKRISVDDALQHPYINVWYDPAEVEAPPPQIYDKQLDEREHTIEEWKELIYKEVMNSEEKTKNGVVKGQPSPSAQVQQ
Method: (§2) A 10-point titration of all compounds was carried out in 3-fold dilutions from 10 μM to 0.5 nM.

JNK2 = JNK2 (Homo sapiens, UniProt P45984); test: JNK2 homogeneous time-resolved fluorescence enzyme inhibition assay; format: biochemical; details: for R: ratio of IC50 values of JNK2 over JNK3: isoform selectivity against JNK2; for IC50: mean of ≥2 experiments, read-out: Biochemical inhibition IC50 JNK2
Sequence of JNK2 (P45984 whole entry, canonical isoform): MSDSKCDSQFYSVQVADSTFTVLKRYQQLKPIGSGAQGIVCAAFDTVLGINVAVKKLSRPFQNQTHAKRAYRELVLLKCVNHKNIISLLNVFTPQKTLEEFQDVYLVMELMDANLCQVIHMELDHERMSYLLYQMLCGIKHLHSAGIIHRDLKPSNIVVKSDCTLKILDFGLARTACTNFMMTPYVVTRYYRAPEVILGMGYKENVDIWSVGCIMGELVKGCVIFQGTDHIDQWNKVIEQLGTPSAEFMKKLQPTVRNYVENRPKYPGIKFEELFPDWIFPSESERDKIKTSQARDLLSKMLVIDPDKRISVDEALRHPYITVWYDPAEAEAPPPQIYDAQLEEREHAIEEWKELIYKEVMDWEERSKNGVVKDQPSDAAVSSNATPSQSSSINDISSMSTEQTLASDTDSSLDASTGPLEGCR
Method: as §2

[1] = Microsomal stability, mouse; format: in vitro ADME; details: mouse microsomes
p38α = p38α (Homo sapiens, UniProt Q16539); test: p38 enzyme inhibition assay; details: mean of ≥2 experiments; read-out: Biochemical inhibition IC50 p38α
Sequence of p38α (Q16539 whole entry): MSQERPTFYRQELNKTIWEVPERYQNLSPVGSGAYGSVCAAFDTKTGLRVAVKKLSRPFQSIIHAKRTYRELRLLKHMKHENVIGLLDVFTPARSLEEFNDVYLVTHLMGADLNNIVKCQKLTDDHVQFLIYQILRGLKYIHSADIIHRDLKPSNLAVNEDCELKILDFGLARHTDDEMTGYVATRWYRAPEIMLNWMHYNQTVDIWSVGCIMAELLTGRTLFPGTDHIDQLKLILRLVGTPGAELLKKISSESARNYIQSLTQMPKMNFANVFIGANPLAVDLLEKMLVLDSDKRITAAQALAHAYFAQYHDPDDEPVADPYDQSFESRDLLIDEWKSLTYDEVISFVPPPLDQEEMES

CYP3A4 = CYP3A4 (Homo sapiens, UniProt P08684); test: P450 cocktail inhibition assay, CYP3A4; format: in vitro ADME; details: at 10 μM
Sequence of CYP3A4 (P08684 whole entry): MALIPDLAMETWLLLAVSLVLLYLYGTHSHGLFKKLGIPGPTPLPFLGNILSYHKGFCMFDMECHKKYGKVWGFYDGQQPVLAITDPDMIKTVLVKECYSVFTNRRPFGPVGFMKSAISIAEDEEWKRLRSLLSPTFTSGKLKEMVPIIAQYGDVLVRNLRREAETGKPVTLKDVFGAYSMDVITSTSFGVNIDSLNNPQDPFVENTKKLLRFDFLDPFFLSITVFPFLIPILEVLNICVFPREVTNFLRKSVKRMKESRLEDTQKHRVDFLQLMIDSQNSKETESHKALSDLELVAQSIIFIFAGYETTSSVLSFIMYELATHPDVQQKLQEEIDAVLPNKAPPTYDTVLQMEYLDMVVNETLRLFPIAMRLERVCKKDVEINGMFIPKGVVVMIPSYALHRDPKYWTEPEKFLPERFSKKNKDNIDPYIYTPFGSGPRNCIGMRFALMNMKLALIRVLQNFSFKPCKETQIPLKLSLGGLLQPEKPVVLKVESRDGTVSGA
Method: as §1

CYP2C9 = CYP2C9 (Homo sapiens, UniProt P11712); test: P450 cocktail inhibition assay, CYP2C9; format: in vitro ADME; details: at 10 μM
Sequence of CYP2C9 (P11712 whole entry): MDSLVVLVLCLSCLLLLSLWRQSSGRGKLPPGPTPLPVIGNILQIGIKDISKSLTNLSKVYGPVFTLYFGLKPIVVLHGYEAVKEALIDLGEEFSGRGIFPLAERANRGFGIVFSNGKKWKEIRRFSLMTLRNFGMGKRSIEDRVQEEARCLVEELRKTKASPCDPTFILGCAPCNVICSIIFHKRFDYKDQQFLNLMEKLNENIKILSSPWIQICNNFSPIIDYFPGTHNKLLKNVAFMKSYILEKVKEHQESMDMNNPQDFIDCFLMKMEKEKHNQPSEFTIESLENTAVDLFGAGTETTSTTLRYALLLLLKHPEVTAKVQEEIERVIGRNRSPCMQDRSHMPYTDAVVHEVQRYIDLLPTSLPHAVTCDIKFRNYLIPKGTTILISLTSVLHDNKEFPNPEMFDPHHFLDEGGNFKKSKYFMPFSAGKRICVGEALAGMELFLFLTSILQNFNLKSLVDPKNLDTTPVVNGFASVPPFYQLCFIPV
Method: as §1

CYP2D6 = CYP2D6 (Homo sapiens, UniProt P10635); test: P450 cocktail inhibition assay, CYP2D6; format: in vitro ADME; details: at 10 μM
Sequence of CYP2D6 (P10635 whole entry): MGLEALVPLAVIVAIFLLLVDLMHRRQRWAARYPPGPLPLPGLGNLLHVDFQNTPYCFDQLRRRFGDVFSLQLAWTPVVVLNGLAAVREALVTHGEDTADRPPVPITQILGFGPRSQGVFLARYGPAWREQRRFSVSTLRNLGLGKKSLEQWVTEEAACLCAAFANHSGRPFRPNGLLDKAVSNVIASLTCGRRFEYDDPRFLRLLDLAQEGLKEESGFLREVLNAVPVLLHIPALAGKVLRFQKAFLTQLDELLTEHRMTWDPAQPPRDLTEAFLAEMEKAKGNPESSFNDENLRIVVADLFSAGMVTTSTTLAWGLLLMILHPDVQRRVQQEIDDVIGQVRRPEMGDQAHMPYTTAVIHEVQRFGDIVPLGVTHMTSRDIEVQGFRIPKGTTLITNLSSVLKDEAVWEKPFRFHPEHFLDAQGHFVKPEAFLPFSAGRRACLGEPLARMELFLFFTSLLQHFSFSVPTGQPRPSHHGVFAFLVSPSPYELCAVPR
Method: as §1

JNK1 = JNK1 (Homo sapiens, UniProt P45983); test: JNK1 homogeneous time-resolved fluorescence enzyme inhibition assay; format: biochemical; details: for IC50: mean of ≥2 experiments, read-out: Biochemical inhibition IC50 JNK1; for R: ratio of IC50 values of JNK1 over JNK3: isoform selectivity against JNK1
Sequence of JNK1 (P45983 whole entry, canonical isoform): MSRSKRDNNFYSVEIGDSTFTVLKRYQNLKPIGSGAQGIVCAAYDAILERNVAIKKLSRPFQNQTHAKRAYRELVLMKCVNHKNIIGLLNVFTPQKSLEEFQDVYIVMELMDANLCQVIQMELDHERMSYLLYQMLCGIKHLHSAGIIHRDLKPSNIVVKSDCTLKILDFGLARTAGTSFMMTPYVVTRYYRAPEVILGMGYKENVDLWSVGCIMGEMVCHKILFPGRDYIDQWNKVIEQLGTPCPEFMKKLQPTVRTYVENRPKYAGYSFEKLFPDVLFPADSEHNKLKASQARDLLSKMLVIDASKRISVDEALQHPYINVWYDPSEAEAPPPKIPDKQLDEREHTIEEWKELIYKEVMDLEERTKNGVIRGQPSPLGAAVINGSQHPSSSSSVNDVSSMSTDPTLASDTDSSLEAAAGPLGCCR
Method: as §2

SHSY5Y cells = test: MTT cytotoxicity assay; format: cell-based; parameters: dose or concentration left out as unconfirmed; details: 48 hrs, average of ≥2 experiments;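 note: compounds tested at 10 µM final concentration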
Method: A day before the assay, cells were plated at 50,000/well in 96 well plates in the culture medium. […] After the incubation, cells were subjected to MTT assay using Vybrant MTT Cell Proliferation kit as directed by the vendor (Life Technologies).

[2] = Microsomal stability, human; format: in vitro ADME; details: human microsomes
[3] = test system: JNK3-dependent phosphorylation of APP at T668; test: JNK3 inhibition assay in rat primary neuron cultures (Western blot, anisomycin activated); format: cell-based; details: even at a concentration as low as 10 nM; FIGS. 5A-5C
Method: Both hippocampal and cortical neurons were isolated from E18 rat embryos and cultured in NbActive 1 medium that contains B27 (Brainbits, LLC) plus penicillin/streptomycin (Life Technologies). At the 7th day in culture, cells were treated with different concentrations of inhibitors diluted in DMSO and 80 ng/ml Anisomycin for 30 min to activate the endogenous JNK3. At the end of incubation time, whole cell lysates were prepared in RIPA buffer containing 50 mM Tris (pH 8.0), 150 mM NaCl, 2 mM EDTA, 1% NP-40, 0.5% deoxycholate supplemented with 10 mM Na pyrophosphate, 1 mM sodium orthovanadate, 25 mM NaF, 10 μg/ml leupeptin, 10 μg/ml aprotinin, 1 mM β-glycerophosphate, and 2 mM PMSF. The lysates were subjected to Western blotting to detect whether inhibitors block JNK3-dependent phosphorylation of APP at T668 and c-jun at S73. Phospho-APP^T668, phosphor-c-jun^S73, APP, and c-jun antibodies were from Cell Signaling Technology.

SMILES | CYP-450 % inh. 1A2 (CYP1A2) [%] | IC50 (JNK3α1) [nM] | R: ratio of IC50 values of JNK2 over JNK3 (JNK2) | IC50 (JNK2) [nM] | Mic. stability t1/2 Mouse [1] [min] | IC50 (p38α) [nM] | CYP-450 % inh. 3A4 (CYP3A4) [%] | CYP-450 % inh. 2C9 (CYP2C9) [%] | CYP-450 % inh. 2D6 (CYP2D6) [%] | IC50 (JNK1) [nM] | MTT cell viability (SHSY5Y cells) [%] | Mic. stability t1/2 Human [2] [min] | R: ratio of IC50 values of JNK1 over JNK3 (JNK1) | inhibition of phosphorylation of residue T668 of APP [3] | reduction in JNK3 inhibitions (JNK3α1; compared to 16) [fold]
CN1CCC(NC(=O)c2cc(-n3cc(NC(=O)Nc4ccccc4Cl)cn3)cs2)CC1 [Compound 14, 4-(4-(3-(2-chlorophenyl)ureido)-1H-pyrazol-1-yl)-N-(1-methylpiperidin-4-yl)thiophene-2-carboxamide] | −6 | 84 | 33 | 2770 | 15 | > 20000 | −34 | −19 | −5 | 4200 | 89 | 92 |  |  | 
O=C(Nc1cnn(-c2csc(C(=O)NC3CCOCC3)c2)c1)Nc1ccccc1Cl [Compound 15, 4-(4-(3-(2-chlorophenyl)ureido)-1H-pyrazol-1-yl)-N-(tetrahydro-2H-pyran-4-yl)thiophene-2-carboxamide] | 32 | 50 | 21 | 1050 | 16 | > 20000 | −35 | 7 | 0 | 1900 | 97 | 32 | 38 |  | 
O=C(Nc1cnn(-c2csc(C(=O)NCC3CCOCC3)c2)c1)Nc1ccccc1Cl [Compound 24, 4-(4-(3-(2-chlorophenyl)ureido)-1H-pyrazol-1-yl)-N-((tetrahydro-2H-pyran-4-yl)methyl)thiophene-2-carboxamide] | 36 | 24 | 34 | 810 | 15 | > 20000 | 21 | 64 | 32 | 1500 | 95 | 8 | 63 |  | 
O=C(Nc1cnn(-c2csc(C(=O)NC3COC3)c2)c1)Nc1ccc(F)cc1Cl [Compound 26, 4-(4-(3-(2-chloro-4-fluorophenyl)ureido)-1H-pyrazol-1-yl)-N-(oxetan-3-yl)thiophene-2-carboxamide] | 38 |  |  |  | 68 |  | −5 | 47 | 30 |  | 104 | >120 |  | significantly inhibited | 
Cc1sc(C(=O)N[C@@H]2CCOC2)cc1-n1cc(NC(=O)Nc2c(F)cccc2Cl)cn1 [Compound 28, (R)-4-(4-(3-(2-chloro-6-fluorophenyl)ureido)-1H-pyrazol-1-yl)-5-methyl-N-(tetrahydrofuran-3-yl)thiophene-2-carboxamide] | 34 |  |  |  | 38 |  | 26 | 35 | 17 |  | 114 | 40 |  | significantly inhibited | 7
